Legend:
[1] = target: T1, Salmonella typhimurium melibiose permease (MelBSt) (Salmonella typhimurium, UniProt P30878); experiment: MelB extraction and thermal solubilization stability (SDS-PAGE, Western blotting); assay type: biochemical; conditions: 1.5 wt % detergent, 90 minutes
T1 construct: made in house; host or cells: E. coli DW2 cells
Experimental: Experiments were performed to measure the structural stability of Salmonella typhimurium melibiose permease (MelBSt) protein by TSMs, TTGs and TEMs. After the MelB protein was extracted from the membrane using TSMs, TTGs, TEMs or DDM, the amount and structure of the extracted protein were analyzed by SDS-PAGE and Western blotting. The concentration of the amphiphilic compound used was 1.5 wt %, the protein was extracted at 0° C. for 90 minutes and then the extracted protein was incubated at three high temperatures (45, 55, and 65° C.) for an additional 90 minutes. By measuring the amount of protein remaining in a dissolved state in an aqueous solution of the extracted protein and the heat-treated protein, we tried to evaluate the performance of both the protein extraction efficiency and stabilization ability of the compound at the same time. […]
Specifically, Salmonella typhimurium melibiose permease (MelBSt) having a 10-His tag at the C-terminus was expressed in E. coli DW2 cells (βmelB and βlacZY) using a plasmid pK95βAHB/WT MelBSt/CH10. […] MelBSt was measured by an ImageQuant LAS 4000 Biomolecular Imager (GE Health Care Lifer Science) using a SuperSignal West Pico chemiluminescent substrate.

[2] = tested on: BOR1-GFP fusion protein; experiment: AtBOR1 thermal stability, fluorescence size exclusion chromatography (FSEC); conditions: 1% detergent, heated at 47° C. for 10 minutes
Experimental: Fluorescence size exclusion chromatography (FSEC): BOR1 of Arabidopsis thaliana was expressed in Saccharomyces cerevisiae FGY217 cells as a fusion protein having a C-terminal GFP tag. The cells were grown in a URA medium supplemented with 0.1% glucose. Protein expression was induced by adding 2% galactose, and then the cells were cultured at 20° C. for 18 hours as previously described. The cells were collected and used to prepare a membrane. The membrane including the BOR1-GFP fusion protein was diluted as follows. […] Samples were cultured while shaking at 4° C. for 1 hour, and then insoluble materials were removed by centrifugation at 14,000 g and 4° C. for 1 hour. A supernatant including the solubilized protein sample was heated at 47° C. for 10 minutes. After additional centrifugation to remove large aggregates, a 200 μl aliquot of the sample was injected into a Superose 6 10/300 column equilibrated with 20 mm Tris (pH 7.5), 150 mm NaCl and 0.03% DDM. The GFP fluorescence of each fraction was read using an excitation wavelength of 470 nm and an emission wavelength of 512 nm.

[3] = Critical micelle concentration (CMC) by fluorescent dye diphenylhexatriene (DPH); assay type: physicochemical; conditions: DPH fluorescence
Experimental: A method of measuring the CMC is not particularly limited, but a method widely known in the art may be used, and for example, the CMC may be measured by a fluorescent staining method using diphenylhexatriene (DPH).
(§1) Specifically, the critical micelle concentrations (CMCs) were measured using a fluorescent dye, diphenylhexatriene (DPH), and the hydrodynamic radii (Rh) of micelles formed by each preparation (1.0 wt %) were determined by a dynamic light scattering (DLS) experiment. The measured results are shown in Table 1 compared to DDM which is an existing amphiphilic molecule (detergent).

[4] = Solubility of detergent (Table 1); assay type: physicochemical
[5] = Hydrodynamic radius (Rh) of micelles by dynamic light scattering (DLS); assay type: physicochemical; conditions: 1.0 wt % detergent
Experimental: A method of measuring the radius of micelle is not particularly limited, but a method widely known in the art may be used, and for example, the radius of micelle may be measured using a dynamic light scattering (DLS) experiment.
as §1

[6] = tested on: leucine transporter (LeuT); experiment: LeuT structural stability: [3H]-Leu binding by scintillation proximity assay (SPA); assay type: biochemical, Aquifex aeolicus; conditions: CMC+0.04 wt % or CMC+0.2 wt %, room temperature, 13-day incubation, [3H]-Leu SPA
Experimental: Experiments were performed to measure the structural stability of the LeuT protein by TSMs, TTGs and TEMs. Each amphiphilic compound was used at a concentration of (a) CMC+0.04 wt % or (b) CMC+0.2 wt %, and the substrate binding properties of LeuT were measured using [^3H]-Leu via scintillation proximity assay (SPA). The measurement was performed at regular intervals over the course of a 13-day and 12-day incubation at room temperature, respectively.
Specifically, a wild-type leucine transporter (LeuT) derived from the thermophilic bacterium Aquifex aeolicus was purified by a previously described method (Nature 1998, 392, 353-358 by G. Deckert et al.). LeuT was expressed in E. coli C41 (DE3) transformed with pET16b encoding the C-terminal 8×His-tagged transporter (expression plasmids were provided from Dr E. Gouaux, Vollum Institute, Portland, Oregon, USA). In summary, after a bacterial membrane was isolated and solubilized in 1 wt % DDM, the protein was bound to Ni^2+-NTA resin (Life Technologies, Denmark), and eluted in 20 mM Tris-HCl (pH 8.0), 1 mM NaCl, 199 mM KCl, 0.05% (w/v) DDM and 300 mM imidazole. Then, the purified LeuT (0.5 mg/ml) was diluted with buffers supplemented with TSMs, TTGs, TEMs or DDM at a final concentration of CMC+0.04% (w/v) or CMC+0.2% (w/v) except for DDM and imidazole in the equivalent buffer described above. Protein samples were incubated at room temperature for 13 days, centrifuged at a specified time, and protein properties were confirmed by measuring [^3H]-Leucine binding ability using SPA. SPA was performed with 5 μL of each protein sample in a buffer containing 450 mM NaCl and each of TSMs and TEMs (or DDM). The SPA reaction was performed in the presence of 20 nM [^3H]-Leucine and 1.25 mg/ml copper chelate (His-Tag) YSi beads (PerkinElmer, Denmark). Overall [^3H]-Leucine coupling to each sample was measured using a MicroBeta liquid scintillation counter (Perkin Elmer).

[7] = target: T2, μ-opioid receptor (MOR) (Mus musculus, UniProt P42866); conditions: LMNG not among the compounds of the described test; cited from earlier work
[8] = target: AtBOR1 (Arabidopsis thaliana, UniProt Q8VYR7); experiment: AtBOR1 thermal denaturation, CPM assay; assay type: biochemical; conditions: CMC+0.04 wt %, 40° C., 120 minutes
Experimental: CPM assay: AtBOR1 was concentrated to 10 mg/ml in a buffer (20 mM Tris-HCl (pH 7.5), 150 mM NaCl, 0.03% DDM) with a 100 kDa MWCO centrifugal filter, stored at −80° C. and thawed immediately prior to thermal stability analysis. […] A 7-diethylamino-3-(4′-maleimidylphenyl)-4-methylcoumarin (CPM) dye (Invitrogen) was dissolved in DMSO at 4 mg/ml, and was diluted 1:100 with a buffer (150 mM NaCl supplemented with 20 mM Tris-HCl (pH 7.5) and 0.03% DDM). After 3 μL of the CPM dye was added to each well in the dark, the plate was covered with a transparent lid and the cells were cultured at 40° C. for 120 minutes. Fluorescence emission was monitored every 5 minutes using SpectraMax M2 (Molecular Devices) with a […] of 387 nm and an emission wavelength of 463 nm. Fluorescence readings were normalized under the most unstable conditions to calculate the percentage of proteins that were relatively unfolded. Data was analyzed as a single exponential decay curve using GraphPad Prism 6.

[9] = target: T2, μ-opioid receptor (MOR); experiment: MOR thermal stability test (CPM dye, melting point Tm); assay type: biochemical; conditions: 0.5 wt % compound, CPM fluorescence, 20° C. to 65° C.
Experimental: An N-[4-(7-diethylamino-4-methyl-3-coumarinyl)phenyl]maleimide (CPM) dye dissolved in DMSO (3 mg/ml) was diluted 40× in a buffer including 20 mM HEPES pH 7.5 and 150 mM NaCl. […] After 1 hour at room temperature, a compound was prepared at a final concentration of 0.5 wt % by diluting the receptor solution 2× in 20 mM HEPES pH 7.5, 150 mM NaCl. After […] of the diluted CPM dye was added thereto, the receptor stability of different compounds was measured by recording the fluorescence spectra (excitation 387 nm) every 5° C. from 20° C. to 65° C. while culturing at each temperature for 2 minutes. The melting point (Tm) was calculated by plotting the read value at 470 nm and fitting a non-linear regression curve using GraphPad Prism.

[10] = target: human β2 adrenergic receptor (β2AR) (Homo sapiens, UniProt P07550); experiment: β2AR stability: [3H]-dihydroalprenolol (DHA) ligand binding assay; conditions: CMC+0.2 wt %, room temperature, 6 days, [3H]-DHA
Experimental: Experiments were performed to measure the structural stability of the human β2 adrenergic receptor (β2AR) and G-protein-coupled receptor (GPCR) by TSMs, TTGs and TEMs. That is, a receptor purified by DDM was subjected to amphiphilic molecular exchange when diluted with a buffer solution containing only each of TSMs, TTGs and TEMs without cholesteryl hemisuccinate (CHS) or a buffer solution containing CHS and DDM. The final concentration of the amphiphilic molecule was CMC+0.2 wt %, and the ligand binding properties of the receptor were measured by binding of [^3H]-dihydroalprenolol ([^3H]-DHA). Specifically, the following method was used for a radioligand binding test. β2AR was purified using 0.1% DDM (D. M. Rosenbaum et al., Science, 2007, 318, 1266-1273.) and finally concentrated to about 10 mg/ml (about 200 μM). A master binding mixture containing 10 nM [^3H]-dihydroalprenolol (DHA) supplemented with 0.5 mg/ml BSA in 0.2% amphiphilic compounds (DDM, TSMs, TTGs or TEMs) was prepared using β2AR purified with DDM. Receptors purified with DDM, TSMs, TTGs or TEMs were incubated with 10 nM [^3H]-DHA at room temperature for 6 days. The mixture was loaded onto a G-50 column and a flow through was collected with 1 ml of a binding buffer (20 mM HEPES supplemented with 0.5 mg/ml BSA and 20×CMC each amphiphilic compound, pH 7.5, 100 mM NaCl), and filled with 15 ml of a scintillation fluid. Receptor-bound [^3H]-DHA was measured by a scintillation counter (Beckman). The binding of [^3H]-DHA is shown as a column graph.

Chain of human β2 adrenergic receptor (β2AR) (P07550 whole entry): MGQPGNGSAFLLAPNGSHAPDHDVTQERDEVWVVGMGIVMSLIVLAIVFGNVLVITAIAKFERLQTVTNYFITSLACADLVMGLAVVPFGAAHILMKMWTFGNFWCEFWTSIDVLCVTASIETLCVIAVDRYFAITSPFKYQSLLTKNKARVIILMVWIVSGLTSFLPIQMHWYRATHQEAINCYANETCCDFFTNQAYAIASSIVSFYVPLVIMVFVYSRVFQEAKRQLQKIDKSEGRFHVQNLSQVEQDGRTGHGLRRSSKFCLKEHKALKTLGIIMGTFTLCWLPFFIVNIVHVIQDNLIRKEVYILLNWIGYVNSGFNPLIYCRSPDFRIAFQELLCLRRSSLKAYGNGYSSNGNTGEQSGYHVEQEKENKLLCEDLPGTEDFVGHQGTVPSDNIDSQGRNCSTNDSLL
T2 sequence (P42866 whole entry): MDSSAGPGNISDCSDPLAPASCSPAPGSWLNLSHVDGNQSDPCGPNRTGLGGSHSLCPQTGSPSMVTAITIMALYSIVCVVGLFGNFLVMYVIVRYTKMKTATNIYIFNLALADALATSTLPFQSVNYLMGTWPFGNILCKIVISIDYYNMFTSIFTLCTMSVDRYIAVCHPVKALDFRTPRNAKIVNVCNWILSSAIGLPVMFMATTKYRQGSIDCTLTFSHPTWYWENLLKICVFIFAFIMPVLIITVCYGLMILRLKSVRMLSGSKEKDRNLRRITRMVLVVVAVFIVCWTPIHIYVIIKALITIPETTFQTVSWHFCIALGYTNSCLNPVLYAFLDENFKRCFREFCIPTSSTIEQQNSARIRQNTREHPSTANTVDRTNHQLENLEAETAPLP
Chain of AtBOR1 (Q8VYR7 whole entry): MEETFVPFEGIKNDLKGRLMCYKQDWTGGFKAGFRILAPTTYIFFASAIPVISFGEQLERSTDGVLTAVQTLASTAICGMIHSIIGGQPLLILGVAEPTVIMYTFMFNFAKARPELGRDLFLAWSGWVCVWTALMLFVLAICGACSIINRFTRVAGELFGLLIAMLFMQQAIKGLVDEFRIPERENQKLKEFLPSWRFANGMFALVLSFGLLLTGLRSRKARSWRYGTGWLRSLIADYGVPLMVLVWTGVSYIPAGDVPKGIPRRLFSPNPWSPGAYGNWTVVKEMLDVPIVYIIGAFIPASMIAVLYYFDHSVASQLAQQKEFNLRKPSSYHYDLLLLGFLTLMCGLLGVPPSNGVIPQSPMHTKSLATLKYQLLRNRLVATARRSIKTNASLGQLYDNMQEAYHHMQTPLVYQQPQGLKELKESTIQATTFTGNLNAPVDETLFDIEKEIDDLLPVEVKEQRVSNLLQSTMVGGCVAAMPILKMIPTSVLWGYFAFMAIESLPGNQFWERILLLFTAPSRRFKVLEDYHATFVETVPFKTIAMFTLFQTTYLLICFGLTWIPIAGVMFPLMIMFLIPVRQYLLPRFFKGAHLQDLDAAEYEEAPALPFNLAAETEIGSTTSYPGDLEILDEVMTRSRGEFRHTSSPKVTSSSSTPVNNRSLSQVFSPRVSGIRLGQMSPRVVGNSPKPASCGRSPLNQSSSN
T1 sequence (P30878 whole entry): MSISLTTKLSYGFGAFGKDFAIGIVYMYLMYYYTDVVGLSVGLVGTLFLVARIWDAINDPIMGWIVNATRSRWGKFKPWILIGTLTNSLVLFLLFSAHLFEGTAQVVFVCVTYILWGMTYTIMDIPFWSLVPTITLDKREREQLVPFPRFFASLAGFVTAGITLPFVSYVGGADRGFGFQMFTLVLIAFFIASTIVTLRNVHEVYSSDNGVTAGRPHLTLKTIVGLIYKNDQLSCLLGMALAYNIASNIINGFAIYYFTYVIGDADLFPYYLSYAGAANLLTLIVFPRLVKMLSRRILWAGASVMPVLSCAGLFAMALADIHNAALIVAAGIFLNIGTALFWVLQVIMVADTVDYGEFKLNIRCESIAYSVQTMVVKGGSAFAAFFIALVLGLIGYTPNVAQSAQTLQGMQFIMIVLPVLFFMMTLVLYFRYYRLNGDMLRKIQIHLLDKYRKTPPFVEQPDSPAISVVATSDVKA

Row | SMILES | CMC [3] [mM] | solubility [4] [%] | Rh (nm) [5] [nm] | LeuT substrate binding properties over incubation [6] | ability to preserve AtBOR1 in the folded state (CPM) [8] | MOR melting point (Tm) [9] [°C] | MelB protein extraction efficiency at 0° C. [1] | AtBOR1 thermal stability by FSEC (protein peak vs aggregation peak) [2] | MOR melting point (Tm) of LMNG, comparison value [7] [°C] | β2AR long-term ligand binding retention [10]
1 | CCCCCCCCCCCCO[C@@H]1O[C@H](CO)[C@@H](O[C@H]2O[C@H](CO)[C@@H](O)[C@H](O)[C@H]2O)[C@H](O)[C@H]1O [DDM, n-dodecyl-β-D-maltopyranoside, reference compound] | ~0.17 | ~10 | 3.4 ± 0.03 | high initial activity, but the substrate binding ability sharply decreased with the passage of time |  |  | high MelB protein extraction efficiency | significant reduction in the original homogeneous protein peak |  | 
2 | CCCCCCCCCCC(CCCCCCCCCC)(CO[C@@H]1O[C@H](CO)[C@@H](O[C@H]2O[C@H](CO)[C@@H](O)[C@H](O)[C@H]2O)[C@H](O)[C@H]1O)CO[C@@H]1O[C@H](CO)[C@@H](O[C@H]2O[C@H](CO)[C@@H](O)[C@H](O)[C@H]2O)[C@H](O)[C@H]1O [LMNG] |  |  |  |  |  |  |  |  | 38.3 | 
3 | CCCCCCCCCCOc1nc(OCCCCCCCCCC)nc(N(CCO[C@@H]2O[C@H](CO)[C@@H](O[C@H]3O[C@H](CO)[C@@H](O)[C@H](O)[C@H]3O)[C@H](O)[C@H]2O)CCO[C@@H]2O[C@H](CO)[C@@H](O[C@H]3O[C@H](CO)[C@@H](O)[C@H](O)[C@H]3O)[C@H](O)[C@H]2O)n1 [TEM-E10] | ~0.005 | ~5 | 4.5 ± 0.1 | best substrate binding activity | best performance | 48.0 |  | highly effective in maintaining the initial state of the protein |  | 
4 | CCCCCCCCCCSc1nc(NC(CO[C@@H]2O[C@H](CO)[C@@H](O)[C@H](O)[C@H]2O)(CO[C@@H]2O[C@H](CO)[C@@H](O)[C@H](O)[C@H]2O)CO[C@@H]2O[C@H](CO)[C@@H](O)[C@H](O)[C@H]2O)nc(SCCCCCCCCCC)n1 [TTG-T10] | ~0.006 | ~10 | 3.6 ± 0.10 | best substrate binding activity |  |  |  |  |  | better in maintaining the ligand binding ability of the receptor than DDM

The next lines start with results.

Row | CMC [3] [mM] | solubility [4] [%] | Rh (nm) [5] [nm] | LeuT substrate binding properties over incubation [6] | ability to preserve AtBOR1 in the folded state (CPM) [8] | MOR melting point (Tm) [9] [°C] | SMILES | MelB protein extraction efficiency at 0° C. [1] | AtBOR1 thermal stability by FSEC (protein peak vs aggregation peak) [2] | MOR melting point (Tm) of LMNG, comparison value [7] [°C] | β2AR long-term ligand binding retention [10]
5 | ~0.004 | ~5 | 8.7 ± 0.7 |  |  | 48.9 | CCCCCCCCCCOc1nc(NC(CO[C@@H]2O[C@H](CO)[C@@H](O[C@H]3O[C@H](CO)[C@@H](O)[C@H](O)[C@H]3O)[C@H](O)[C@H]2O)CO[C@@H]2O[C@H](CO)[C@@H](O[C@H]3O[C@H](CO)[C@@H](O)[C@H](O)[C@H]3O)[C@H](O)[C@H]2O)nc(OCCCCCCCCCC)n1 [TSM-E10] |  |  |  | better in maintaining the ligand binding ability of the receptor than DDM
6 | ~0.004 | ~10 | 5.1 ± 0.1 | best substrate binding activity |  |  | CCCCCCCCCSc1nc(NC(CO[C@@H]2O[C@H](CO)[C@@H](O[C@H]3O[C@H](CO)[C@@H](O)[C@H](O)[C@H]3O)[C@H](O)[C@H]2O)CO[C@@H]2O[C@H](CO)[C@@H](O[C@H]3O[C@H](CO)[C@@H](O)[C@H](O)[C@H]3O)[C@H](O)[C@H]2O)nc(SCCCCCCCCC)n1 [TSM-T9] |  |  |  | better in maintaining the ligand binding ability of the receptor than DDM
7 | ~0.004 | ~10 | 3.7 ± 0.09 | best substrate binding activity |  |  | CCCCCCCCCCCSc1nc(NC(CO[C@@H]2O[C@H](CO)[C@@H](O)[C@H](O)[C@H]2O)(CO[C@@H]2O[C@H](CO)[C@@H](O)[C@H](O)[C@H]2O)CO[C@@H]2O[C@H](CO)[C@@H](O)[C@H](O)[C@H]2O)nc(SCCCCCCCCCCC)n1 [TTG-T11] |  |  |  | better in maintaining the ligand binding ability of the receptor than DDM
8 | ~0.0035 | ~5 | 5.5 ± 0.20 | best substrate binding activity |  |  | CCCCCCCCCCCCSc1nc(NC(CO[C@@H]2O[C@H](CO)[C@@H](O)[C@H](O)[C@H]2O)(CO[C@@H]2O[C@H](CO)[C@@H](O)[C@H](O)[C@H]2O)CO[C@@H]2O[C@H](CO)[C@@H](O)[C@H](O)[C@H]2O)nc(SCCCCCCCCCCCC)n1 [TTG-T12] |  |  |  | better in maintaining the ligand binding ability of the receptor than DDM

— patent US12473324B2, “Triazine-based amphiphilic compound and use thereof” (INDUSTRY-UNIVERSITY COOPERATION FOUNDATION HANYANG …, priority 2019, dated 2025)
